Where two headings read alike, the source gives them in different places. Ends that are not written are not given here.
How the values were obtained:
normal human melanocytes = assay: Tanning action: melanin content by ELISA; type: cell-based; settings: cultured for a week, various concentrations
Description: The effect of topical application of NGF1-14 on the activation of melanocytes to produce melanin has been assessed.
According to already set up protocols, primary cell cultures of normal human melanocytes were seeded in Petri dishes and cultured for a week, with and without the presence of NGF 1-14 at various concentrations. The melanin content was measured by enzyme immunoassay ELISA.

[1] = Skin distribution of NGF1-14 gel preparation, HPLC-UV of epidermis and dermis extracts; type: in vivo, rat; settings: 0.1% gel, following LFS, compared to vehicle
Description: Distribution experiments were carried out to evaluate the ability of NGF1-14 gel preparation to penetrate the corneal stratus and reach the dermis, also by using sonophoresis-like strategies to facilitate skin penetration.
Tape-striping and ultrasounds were applied on the shaved dorsal area of female adult Sprague Dawley (SD) rats (10-12 months).
Low-Frequency Sonophoresis (LFS) was applied using a Sonics Ultrasonic Processor Model VCX 400 operating at a frequency of 20 KHz (tip displacement of about 2 cm, continuous mode) for 6 or 10 minutes, according to common clinical practices, since a prolonged use of sonophoresis is known to increase skin permeation but also to a considerable thermal damage, which is not appropriate for the use (Ref. International Journal of Health Sciences & Research 477 Vol. 5; Issue: 5; May 2015: A Review on Ultrasound Parameters and Methods of Application in Transdermal Drug Delivery).
Vehicle control and NGF1-14 gel preparation were administered on the skin portion pre-treated with LFS (S) or on shaved/tape striping skin (NS).
Treatment was repeated after two hours, and rats were sacrificed to dissect skin samples 2 hours after the second gel/NGF mimetic application. […]
Quantification of NGF 1-14 was determined by HPLC-UV, on a reverse phase C4 column, eluting with phosphate buffer (pH 7.4) and acetonitrile. […]

[2] = pKa by potentiometric pH-metric titration (Sirius T3); type: physicochemical; settings: 0.15 M KCl solution (ISA water), 25±1° C.
Description: Experimental pKa as well as partition and distribution coefficients (log P and log D) were determined using an automated potentiometric titrator Sirius T3 (Sirius Analytical Instruments Ltd., East Sussex, UK) equipped with an Ag/AgCl double junction reference pH electrode, a Sirius D-PAS spectrometer and a turbidity sensing device. The pH electrode was calibrated titrimetrically in the pH range 1.8-12.2. An overhead stirrer was used and a temperature probe monitored the temperature during the course of the titration. The titration experiments were conducted in 0.15 M KCl solution (ISA water) under an argon atmosphere at a temperature of 25±1° C. All tests were performed using standardized 0.5 M KOH and 0.5 M HCl as titration reagents, for the partition coefficient tests a saturated Octanol in ISA water (5% of ISA water) was used as partition solvent. The pKa is determined by potentiometric method by pH-metric titration. The powder (around 0.5 mg) was dissolved in 1.5 ml of ISA water and the titration was performed in triplicate in the pH range 2.0-12.0. Log P is performed in triplicate by dissolving the powder (around 0.7 mg) in 1 ml of ISA water followed by pH metric titration in three different percentage of Octanol (generally 50%, 60%, 70%). The predicted pKa and the calculated log P for the instrumental model was performed using ACD/Percepta.

pro-Collagen I = assay: Pro-Collagen I in dermis by Elisa, single administration test; type: in vivo, rat
Description: (§1) Since the proteins of extracellular matrix collagen and elastin are involved in wound repair, skin aging and photo-aging, the effect of topical application of NGF1-14 on the levels of these two proteins was also analyzed.
(§2) Pro-Collagen I and Elastin were measured by using commercial Elisa kits, first in a single administration test, followed by a two weeks administration test.
(§3) A similar trend was observed by analyzing the two proteins: an increase of both pro-Collagen I (A) and Elastin (B) was detected in dermis of NGF1-14 treated rats at 0.1% dose, after sonication. The effect was less appreciable without applying the ultrasounds.
(§4) The protective action of NGF1-14 at 0.1% dose (P 0.1%) was evaluated on adult skin exposed to sub-erythematous levels of UV-B (MED=60 mJ/cm^2 twice a day) first in a single administration test (one day) then for three weeks before the treatment. This experimental procedure is also refereed as Photo-AGing model (PAG) since it induces structural and molecular changes occurring in aging.

TrkA = TrkA phosphorylation by Western Blot; type: in vivo, rat; settings: dermis samples, with or without LFS, compared to vehicle controls; FIG. 4
[3] = target: T1, NGF receptors, TrkA and p75 (Rattus norvegicus, UniProt P35739); assay: PC12-Luci c-fos promoter luciferase reporter assay; type: cell-based; settings: for Ec50 (luminescence): PC12-Luci cells, 4 h at 37° C.
T1 construct: PC12-Luci cells, which endogenously express the NGF receptors, TrkA and p75; endogenous in cells; host or cells: PC12-Luci (rat pheochromocytoma clone B9 with the human c-fos promoter-luciferase reporter)
T1 sequence (P35739 33-799): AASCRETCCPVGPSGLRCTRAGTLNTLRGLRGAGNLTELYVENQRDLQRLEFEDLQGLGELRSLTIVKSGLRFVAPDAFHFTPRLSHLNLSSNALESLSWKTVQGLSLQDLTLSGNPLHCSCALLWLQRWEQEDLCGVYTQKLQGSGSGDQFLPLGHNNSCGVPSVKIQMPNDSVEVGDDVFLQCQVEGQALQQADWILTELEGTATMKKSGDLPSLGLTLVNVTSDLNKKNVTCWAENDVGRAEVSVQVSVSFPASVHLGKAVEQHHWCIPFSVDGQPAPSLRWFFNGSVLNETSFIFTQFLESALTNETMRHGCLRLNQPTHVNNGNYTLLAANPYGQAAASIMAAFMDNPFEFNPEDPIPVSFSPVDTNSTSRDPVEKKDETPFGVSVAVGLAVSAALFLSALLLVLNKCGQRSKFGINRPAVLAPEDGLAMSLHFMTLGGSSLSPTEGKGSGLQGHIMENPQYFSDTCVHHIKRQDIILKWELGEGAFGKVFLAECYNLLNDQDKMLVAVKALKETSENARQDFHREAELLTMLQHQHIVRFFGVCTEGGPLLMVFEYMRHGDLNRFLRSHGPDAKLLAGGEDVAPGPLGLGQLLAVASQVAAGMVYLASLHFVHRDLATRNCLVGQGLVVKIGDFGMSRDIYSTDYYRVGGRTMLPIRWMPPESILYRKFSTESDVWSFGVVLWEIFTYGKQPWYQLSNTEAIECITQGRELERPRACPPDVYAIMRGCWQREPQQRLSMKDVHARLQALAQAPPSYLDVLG
Text: NGF treatment of rat pheochromocytoma cell line (PC12) results in c-fos mRNA and protein expression (J. Milbrandt, “Nerve growth factor rapidly induces c-fos mRNA in PC12 rat pheochromocytoma cells”, Proc Natl Acad Sci USA. 1986 July; 83(13):4789-93).
Starting from the work of Milbrandt, the Applicant monitored the activation of NFG receptor by using a clone (B9) stably transfected with the human c-fos promoter driving a luciferase reporter gene (PC12-Luci). This clone was used to set up a functional and quantitative assay for the characterization of the activity of NGF1-14.
The experiments were performed in PC12-Luci cells, which endogenously express the NGF receptors, TrkA and p75. Cells were maintained in the following complete culture medium comprising: • DMEM-F12 mixture (DMEM-F12 Glutamax; Life Technologies, GIBCO 10565-018) • 5% fetal bovine serum (FBS, Sigma Aldrich, F7524) • 10% horse serum (HS, Sigma Aldrich, H1138) • 1% penicillin-streptomycin (Life Technologies, GIBCO 15140-122)
For passaging, cells were gently washed with PBS and then incubated with trypsin for 5 min at room temperature or 37° C. Media was added and cells were resuspended (6-8 times).
Experiments were performed in sestuplicate, in black 96 well previously coated with 50 μg/ml collagen type I.
PC-12-Luci cells were seeded at 25000/well in 100 μl complete growth medium. 24h later, cell medium was carefully removed. Cells were then incubated with five concentrations (range 30 ng/ml-300 μg/ml, 1:10 serial dilutions) of NGF1-14 in standard Tyrode buffer with 0.1% BSA (50 μl/well) for 4 h at 37° C. The reference Negermin™ compound (by MimeTech Srl) has been added at 30 μg/ml, as reference. The stock solution of NGF1-14 was resuspended in sterile water, aliquoted and stored at −20° C. The stock solution of Negermin™ compound was resuspended in formulation buffer and stored at −20° C.
After the incubation, the basal level of luminescence was monitored for 30 seconds, by using EnSpire multimode plate reader (PerkinElmer). Then, a Triton-Luciferin mix was added to cells (50 μl/well), in a 1:1 ratio, leading to cell lysis. The obtained luminescence signal was monitored for other 60 seconds. […]
All luminescence values were normalized versus the basal level of luminescence. The response value was calculated as the mean of luminescence of the kinetic recorded.
Data were further analyzed (e.g. calculation of dose-response curves and EC50 values) and graphs plotted using GraphPad Prism (GraphPad Software, Inc.). […]

Elastin = Elastin in dermis by Elisa, single administration test; type: in vivo, rat
Description: as §1, §2, §3, §4

[4] = without applying the ultrasounds

SSSHPIFHRGEFSV [NGF1-14, SSSHPIFHRGEFSV]
melanin content (normal human melanocytes): An increase was observed
NGF1-14 level in epidermis ([1]; FIG. 3A): significant increase
NGF1-14 level in dermis ([1]; FIG. 3B): significant increase
pKa ([2]; read-out: Acid pKa): 4.42 ± 0.05
pKa ([2]; read-out: Base pKa): 7.41 ± 0.07
pro-Collagen I in dermis (pro-Collagen I; 0.1% dose, after sonication, FIG. 5A): increase
Collagen I in dermis (pro-Collagen I; [4]): comparable to the positive control value
phosphorylation levels of TrkA (TrkA): increased phosphorylation levels of TrkA
level of basal luminescence ([3]; 30 ng/ml-300 μg/ml, 4 h): increases the level of basal luminescence in a dose-dependent manner
in vitro potency compared with reference standard ([3]; Negermin™ compound added at 30 μg/ml): higher than reference standard Negermin™ compound, but lower than rhNGF
Ec50 (luminescence) [3]: 290.95 ng/mL
Elastin in dermis (Elastin; 0.1% dose, after sonication, FIG. 5B): increase
Elastin in dermis (Elastin; [4]): slight increase

rhNGF: human recombinant NGF
Ec50 (luminescence) [3]: 1.4 ng/mL
